Laboratory results from patent US7652047B2, “Phenylamino isothiazole carboxamidines as MEK inhibitors” (Ardea Biosciences, Inc., priority 2005, dated 2010).
Read-outs that look alike come from different tables or passages of the source.

Target: T1, MEK1^CA (human GST-MEK1, constitutively active, Ser218Asp and Ser222Asp) (Homo sapiens, UniProt Q02750, S218D/S222D)
T1 construct: GST; made in house; host or cells: Escherichia coli
Assay: MEK1 enzymatic activity assay (MEK1^CA / ERK2 / MBP, [γ-33P]ATP incorporation)
Assay type: biochemical
Excerpt: Materials and preparation of reagents: Human GST-MEK1 and the constitutively active allele GST-MEK1^CA (harboring the mutations Ser218Asp and Ser222Asp) were subcloned into the […] expression vector pGEM4Z (Promega, Madison, Wis.) from the wild type human MEK1 cDNA. GST-MEK1^CA was expressed in Escherichia coli and partially purified using Glutathione Sepharose 4B affinity resin (Amersham Pharmacia Biotech, Piscataway, N.J.). The ERK2 allele was subcloned from MAPK2/Erk2 cDNA (wild type) in pUSEamp (Upstate Biotechnology, Inc., Waltham, Mass.) into the vector pET21a (Novagen, Madison, Wis.) resulting in an N-terminal histidine-tagged mouse ERK2 allele. […] Myelin basic protein (MBP) was purchased from Gibco BRL (Rockville, Md.). EasyTides adenosine 5′-triphosphate (ATP) ([γ-^33P]) (NEN Perkin Elmer, Wellesley, Mass.) was the source of radiolabel for all kinase reactions. Activated Raf-1 (truncated) and activated MAPKinase 2/ERK2 were purchased from Upstate, Inc. (Lake Placid, N.Y.). 4-20% Criterion Precast gels were purchased from Bio-Rad (Hercules, Calif.).
A typical 25-microliter assay contained 0.002 nanomoles MEK1^CA, 0.02 nanomoles ERK2, 0.25 nanomoles MBP, 0.25 nanomoles unlabeled ATP, and 0.1 μCi [γ^33P] ATP. The screening assay essentially comprised four additions. Five μl of diluted compound were dispensed to 96-well assay plates. Ten μl of 2.5× enzyme cocktail (MEK1^CA and ERK2 only) were then added to each well followed by a pre-incubation for 30 minutes at ambient temperature. […] Finally, 100 μl of 10% trichloroacetic acid (TCA) were added and incubated for 30 minutes at room temperature to halt the reaction and precipitate radiolabeled protein products. Reaction products were harvested on glass fiber 96 well filter plates prewetted with water and 1% pyrophosphate. The filter plate was then washed 5 times with water. Water was displaced by absolute ethanol and the plate was allowed to air dry for 30 minutes at room temperature. A back seal was applied manually and 40 μl of scintillation cocktail were dispensed to each well. A top seal was applied and the plate was counted in the TopCount for two seconds per well.

[1] = Table 1, compounds of formula I, read-out: Avg IC50
[2] = Table 4, R' is (CH2)1 or 2-G, read-out: IC50
[3] = Table 2, Ar1-A contains an amido or indolo group, read-out: IC 50

T1 sequence (Q02750 whole entry S218D/S222D): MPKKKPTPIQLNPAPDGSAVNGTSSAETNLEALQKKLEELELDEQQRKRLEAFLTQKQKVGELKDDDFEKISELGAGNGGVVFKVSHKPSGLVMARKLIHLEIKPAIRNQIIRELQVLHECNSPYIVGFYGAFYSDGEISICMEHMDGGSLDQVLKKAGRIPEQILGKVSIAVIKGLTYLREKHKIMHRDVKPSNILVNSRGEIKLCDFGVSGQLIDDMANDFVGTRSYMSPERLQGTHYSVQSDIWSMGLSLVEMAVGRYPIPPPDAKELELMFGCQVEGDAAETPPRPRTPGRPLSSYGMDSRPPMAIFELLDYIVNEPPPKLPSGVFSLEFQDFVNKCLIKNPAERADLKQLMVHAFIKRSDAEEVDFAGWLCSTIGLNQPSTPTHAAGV

Work on `CC(CO)NC(=N)c1c(O)nsc1Nc1ccc(Oc2ccccc2F)cc1` (stereo not shown) [compound 372] yielded an IC50 [1] of 100 to 500 nM.
`Cc1cc(Oc2ccc(F)cc2Cl)ccc1Nc1snc(O)c1C(=N)N(O)Cc1ccccc1` [compound 463] showed an IC50 [1] of 1 to 100 nM.
`N=C(NCCN1CCNCC1)c1c(O)nsc1Nc1ccc(Oc2cc(F)cc(F)c2)cc1` [drawing 829] showed an IC50 [2] of 1 to 100 nM.
Work on `Cc1cc(Oc2cc(F)cc(F)c2)ccc1Nc1snc(O)c1C(=N)NO` [compound 465] yielded an IC50 [1] of 100 to 500 nM.
`CC(CO)NC(=N)c1c(O)nsc1Nc1ccc(Oc2cccc(F)c2)cc1` (stereo not shown) [compound 273] showed an IC50 [1] of 1 to 100 nM.
Compound `N=C(NCC(O)O)c1c(O)nsc1Nc1ccc(Oc2ccccc2Cl)cc1` [compound 210] has an IC50 [1] of 100 to 500 nM.
Compound `Cc1cc(Oc2cc(F)cc(F)c2)ccc1Nc1snc(O)c1C(=N)NC(C)CO` (stereo not shown) [compound 458] has an IC50 [1] of 1 to 100 nM.
`N=C(NCC1(O)CCCCC1)c1c(O)nsc1Nc1ccc(Oc2ccccc2)cc1` [compound 189] was tested, and the IC50 [1] was 100 to 500 nM.
Compound `C[C@H](CO)NC(=N)c1c(O)nsc1Nc1ccc(Oc2ccccc2)cc1` [compound 175] has an IC50 [1] of 1 to 100 nM.
With `CC(C)NC(=N)c1c(O)nsc1Nc1ccc(Oc2ccc(F)cc2)c(F)c1` [compound 395] the IC50 [1] was 100 to 500 nM.
For `COC(=O)c1cccc(Nc2snc(O)c2C(=N)NCC(C)O)c1C` (stereo not shown) [compound 495], the IC50 [1] was > 500 nM.
`CC(C)NC(=N)c1c(O)nsc1Nc1ccccc1Oc1ccccc1` [compound 456] was tested, and the IC50 [1] was 100 to 500 nM.
Work on `N=C(NCC1CCCCC1)c1c(O)nsc1Nc1ccc(Sc2ccc([N+](=O)[O-])cc2)cc1` [compound 84] yielded an IC50 [1] of 100 to 500 nM.
Compound `N=C(NN1CCCCC1)c1c(O)nsc1Nc1ccc(Oc2cc(F)cc(F)c2)cc1` [compound 435] has an IC50 [1] of 1 to 100 nM.
For `CC(C)NC(=N)c1c(O)nsc1Nc1ccc(Oc2cc(F)ccc2Cl)c(F)c1` [compound 319], the IC50 [1] was 1 to 100 nM.
With `N=C(NCCc1cccs1)c1c(O)nsc1Nc1ccc(Oc2ccccc2)cc1` [Cpd 18] the IC50 [1] was 100 to 500 nM.
`Cc1cc(Nc2snc(O)c2C(=N)NC(C)C)ccc1Oc1ccccc1Cl` [compound 316] showed an IC50 [1] of 1 to 100 nM.
In the case of `Cc1cccc(C)c1Oc1ccc(Nc2snc(O)c2C(=N)NC(C)CO)cc1F` (stereo not shown) [compound 276], the IC50 [1] is reported as > 500 nM.
In the case of `N=C(NCC1CCCCC1)c1c(O)nsc1Nc1ccc(CO)cc1` [compound 57], the IC50 [1] is reported as > 500 nM.
`Cc1cc(Oc2cccc(C(F)(F)F)c2)ccc1Nc1snc(O)c1C(=N)NC(C)C` [compound 437] gave an IC50 [1] of 1 to 100 nM.
With `Cc1ccc(S(=O)(=O)NC(=N)c2c(O)nsc2Nc2ccc(Oc3ccccc3)cc2)cc1` [compound 151] the IC50 [1] was > 500 nM.
In the case of `COc1cc2c(cc1Nc1snc(O)c1C(=N)NCC1CCCCC1)oc1ccccc12` [compound 131], the IC50 [1] is reported as > 500 nM.
For `N=C(NCc1ccccn1)c1c(O)nsc1Nc1ccc(Oc2ccccc2)cc1` [compound 38], the IC50 [1] was 100 to 500 nM.
`CC(CO)N=C(N)c1c(O)nsc1Nc1ccc(Oc2cc(C(F)(F)F)ccc2I)cc1` (stereo not shown) [compound 385] gave an IC50 [1] of 1 to 100 nM.
`Cc1ccc(Oc2ccc(Nc3snc(O)c3C(=N)NCC3CCCCC3)cn2)cn1` [drawing 825] was tested, and the IC50 [2] was > 500 nM.
For `N=C(NCC(O)CO)c1c(O)nsc1Nc1ccc(C2CCCCC2)cc1` (stereo not shown) [compound 186], the IC50 [1] was > 500 nM.
`COC(=O)c1ccccc1Oc1ccc(Nc2snc(O)c2C(=N)NC(C)CO)cc1` (stereo not shown) [compound 493] gave an IC50 [1] of 1 to 100 nM.
With `COc1ccc(CNC(=N)c2c(O)nsc2NCc2ccc(OC)cc2)cc1` [compound 115] the IC50 [1] was > 500 nM.
In the case of `N=C(NC1CC1)c1c(O)nsc1Nc1ccc(Oc2ccccc2)cc1` [compound 44], the IC50 [1] is reported as > 500 nM.
In the case of `CC(C)NC(=N)c1c(O)nsc1Nc1ccc(Oc2cccc(Cl)c2)cc1` [compound 249], the IC50 [1] is reported as 1 to 100 nM.
With `CC(CO)NC(=N)c1c(O)nsc1Nc1ccc(Oc2cccc3ccccc23)cc1` (stereo not shown) [compound 338] the IC50 [1] was 1 to 100 nM.
With `Cc1cccc(C)c1Oc1ccc(Nc2snc(O)c2C(=N)NC(C)C)cc1F` [compound 279] the IC50 [1] was 1 to 100 nM.
Work on `N=C(NCc1ccccc1)c1c(O)nsc1Nc1ccc(Oc2cc(Cl)ccc2Cl)cc1` [compound 454] yielded an IC50 [1] of 1 to 100 nM.
`Cc1cc(Oc2cccc(F)c2F)ccc1Nc1snc(O)c1C(=N)NO` [compound 500] showed an IC50 [1] of 1 to 100 nM.
In the case of `N=C(NCc1ccccc1)c1c(O)nsc1Nc1ccc(Oc2cc(F)cc(F)c2)cc1` [compound 424], the IC50 [1] is reported as 1 to 100 nM.
`N=C(NCc1ccc(C(F)(F)F)nc1)c1c(O)nsc1Nc1cccc(Oc2ccccc2)c1` [compound 182] showed an IC50 [1] of 100 to 500 nM.
Work on `CC(C)NC(=N)c1c(O)nsc1Nc1ccc(Cl)cc1Cl` [compound 225] yielded an IC50 [1] of 1 to 100 nM.
In the case of `CC(O)CNC(=N)c1c(O)nsc1Nc1ccc(Oc2ccccc2C(=O)NCC(C)O)cc1` (stereo not shown) [compound 507], the IC50 [1] is reported as > 500 nM.
`CC(C)NC(=N)c1c(O)nsc1Nc1ccc(Oc2cccc(Cl)c2Cl)cc1` [compound 341] showed an IC50 [1] of 1 to 100 nM.
`CC(C)NC(=N)c1c(O)nsc1Nc1ccc(Oc2ccc(F)cc2Cl)c(F)c1` [compound 369] gave an IC50 [1] of 1 to 100 nM.
For `CNC(=N)c1c(O)nsc1Nc1ccc(C(=O)N2CCc3cc(F)ccc32)cc1` [E-22], the IC50 [3] was > 1000 nM.
`CN1CCN(C(=N)c2c(O)nsc2Nc2ccc(Oc3cc(F)cc(F)c3)cc2)CC1` [compound 419] was tested, and the IC50 [1] was > 500 nM.
Work on `CC(C)NC(=N)c1c(O)nsc1Nc1ccc(Oc2ccccc2Br)c(Cl)c1` [compound 290] yielded an IC50 [1] of 1 to 100 nM.
For `CC(C)(C)NC(=N)c1c(O)nsc1Nc1ccc(Oc2ccccc2)cc1` [compound 173], the IC50 [1] was 1 to 100 nM.
For `N=C(NCC(O)O)c1c(O)nsc1Nc1ccc(Oc2ccc(F)cc2)c(Br)c1` [compound 208], the IC50 [1] was > 500 nM.
`Cc1ccccc1Oc1ccc(Nc2snc(O)c2C(=N)NC(C)C)cc1` [compound 301] gave an IC50 [1] of 1 to 100 nM.
`CC(CO)NC(=N)c1c(O)nsc1Nc1ccc(Oc2ccc(Cl)cc2Cl)c(F)c1` (stereo not shown) [compound 374] showed an IC50 [1] of 1 to 100 nM.
With `CCOC(=O)c1cccc(Nc2snc(O)c2C(=N)NC(C)C)c1` [compound 488] the IC50 [1] was > 500 nM.
`CC(CO)NC(=N)c1c(O)nsc1Nc1ccc(Oc2ccc(Cl)cc2)cc1` (stereo not shown) [compound 191] was tested, and the IC50 [1] was 100 to 500 nM.
Compound `N=C(NCCCCO)c1c(O)nsc1Nc1ccc(Oc2ccccc2)cc1` [Cpd 9] has an IC50 [1] of 1 to 100 nM.
For `CC(CO)NC(=N)c1c(O)nsc1Nc1ccc(Oc2cc(F)ccc2F)cc1` (stereo not shown) [compound 350], the IC50 [1] was 1 to 100 nM.
For `CC(C)NC(=N)c1c(O)nsc1Nc1ccc(Oc2ccc(F)cc2Cl)c(Cl)c1` [compound 297], the IC50 [1] was 100 to 500 nM.
For `CC(C)NC(=N)c1c(O)nsc1Nc1ccc(Oc2cccc(N(C)C)c2)cc1` [compound 260], the IC50 [1] was 100 to 500 nM.
Compound `CC(C)NC(=N)c1c(O)nsc1Nc1ccc(C(=O)c2ccccc2)cc1` [compound 234] has an IC50 [1] of 100 to 500 nM.
`CC(C)NC(=N)c1c(O)nsc1Nc1cc(F)c(Oc2cc(Cl)ccc2Cl)cc1F` [compound 475] showed an IC50 [1] of 1 to 100 nM.
Compound `N=C(N[C@@H]1CCC[C@H]1O)c1c(O)nsc1Nc1ccc(Oc2ccccc2)cc1` [compound 155] has an IC50 [1] of 100 to 500 nM.
Compound `N=C(NC(CO)CO)c1c(O)nsc1Nc1ccc(Oc2ccccc2)cc1` [compound 164] has an IC50 [1] of 1 to 100 nM.
For `N=C(NCC1CCCCC1)c1c(O)nsc1Nc1ccc(C(F)(F)F)cc1Cl` [compound 98], the IC50 [1] was > 500 nM.
For `CC(C)(CO)NC(=N)c1c(O)nsc1Nc1ccc(Oc2ccccc2)cc1` [compound 188], the IC50 [1] was 100 to 500 nM.
Compound `CC(O)CNC(=N)c1c(O)nsc1Nc1ccc(Oc2ccccc2)cc1` (stereo not shown) [compound 156] has an IC50 [1] of 100 to 500 nM.
For `N=C(NCC(O)O)c1c(O)nsc1Nc1ccc([N+](=O)[O-])cc1` [compound 78], the IC50 [1] was > 500 nM.
`CC(C)NC(=N)c1c(O)nsc1Nc1ccc(C(=O)N2CCc3ccccc32)cc1` [E-10] was tested, and the IC50 [3] was 1 to 200 nM.
Compound `CC(CO)NC(=N)c1c(O)nsc1Nc1ccc(Oc2cc(F)ccc2Cl)c(F)c1` (stereo not shown) [compound 322] has an IC50 [1] of 1 to 100 nM.
`Cc1ccc(F)c(Oc2ccc(Nc3snc(O)c3C(=N)NC(C)CO)cc2)c1` (stereo not shown) [compound 348] showed an IC50 [1] of 1 to 100 nM.
`N=C(NCCO)c1c(O)nsc1Nc1ccc(Oc2ccc(F)cc2)cc1` [compound 204] was tested, and the IC50 [1] was > 500 nM.
In the case of `CN1CCN(C(=O)c2ccc(Nc3snc(O)c3C(=N)NCCO)cc2)CC1` [E-18], the IC50 [3] is reported as > 1000 nM.
In the case of `CC(CO)NC(=N)c1c(O)nsc1Nc1ccc(Oc2ccccc2)c(F)c1` (stereo not shown) [compound 306], the IC50 [1] is reported as 1 to 100 nM.
For `N=C(NN1CCOCC1)c1c(O)nsc1Nc1ccc(Oc2cc(F)cc(F)c2)cc1` [compound 436], the IC50 [1] was 100 to 500 nM.
In the case of `CC(O)CNC(=N)c1c(O)nsc1Nc1ccc(-c2nc3ccccc3[nH]2)cc1` (stereo not shown) [compound 510], the IC50 [1] is reported as > 500 nM.
For `N=C(NCCO)c1c(O)nsc1Nc1ccc(Oc2ccc(F)cc2)c(Br)c1` [compound 207], the IC50 [1] was > 500 nM.
Work on `N=C(NCC1CCCCC1)c1c(O)nsc1Nc1ccc(Oc2ccccc2)nc1` [compound 103] yielded an IC50 [1] of 100 to 500 nM.
Compound `COCCNC(=N)c1c(O)nsc1Nc1ccc(Oc2cc(F)cc(F)c2)cc1C` [compound 470] has an IC50 [1] of 1 to 100 nM.
In the case of `N/C(=N\CC1CCCCC1)c1c(O)nsc1Nc1ccccc1C(=O)NCC1CCCCC1` [compound 88], the IC50 [1] is reported as > 500 nM.
